Laboratory results: patent US5843437A, “A82846 antibiotics” (Eli Lilly and Company, priority 1995, dated 1998)
≈ marks a conversion by molar mass, not a printed value.

Legend:
Clostridium difficile = assay: MIC against anaerobic bacteria, standard agar-dilution assay (Table IX); format: cell-based; conditions: 19 strains; Gram-positive anaerobe; 24-hour incubation
Clostridium perfringens = assay: microbe, parasite or virus in culture; format: cell-based; conditions: 1 strain; Gram-positive anaerobe; 24-hour incubation
Peptococcus constellatus = assay: MIC against anaerobic bacteria, standard agar-dilution assay (Table IX); format: cell-based; conditions: 1 strain; Gram-positive anaerobe; 24-hour incubation
Propionibacterium acnes = assay: as above; format: cell-based; conditions: 19 strains; Gram-positive anaerobe; 24-hour incubation
Bacteroides fragilis = assay: as above; format: cell-based; conditions: 3 strains; Gram-negative anaerobe; 24-hour incubation
Bacteroides corrodens = assay: as above; format: cell-based; conditions: 1 strain; Gram-negative anaerobe; 24-hour incubation
[1] = system: Streptococcus faecalis X-66; assay: Rat Endocarditis Test, catheter-induced (Table XII); format: in vivo, rats; conditions: for % Cured / % With 4 Log Drop: 16 days, 20 mg/kg × 28, subcutaneous at 12-hour intervals for 14 days; for % With 4 Log Drop: % of animals sacrificed; for effect in experimental catheter-induced endocarditis infection, compared with vancomycin: rats
Procedure: The A82846 antibiotics are also useful in the treatment of endocarditis. […] In this test, rats were prepared by inserting a plastic catheter into the right carotid artery, feeding it down into the […] of the heart and anchoring it securely. The animals were allowed to rest two days, and then the test organism, Streptococcus faecalis X-66, was administered intravenously. The organism titer was approximately 5×10^8 /mL; 0.5 mL was administered.
The compounds were administered subcutaneously 15 minutes prior to infection and at 12-hour intervals for 14 days, a total of 28 treatments. The animals were held 2 days after therapy; then, the hearts were removed, homogenized, diluted and plated on trypticase soy agar. Plates were incubated 48 hours before counting.
^a Catheterinduced endocarditis using Streptococcus faecalis X66
^b Subcutaneous doses at 12hour intervals for 14 days
^c % of animals sacrificed with 4 log drop

CN[C@H](CC(C)C)C(=O)N[C@H]1C(=O)N[C@@H](CC(N)=O)C(=O)N[C@H]2C(=O)N[C@H]3C(=O)N[C@H](C(=O)N[C@@H](C(=O)O)c4cc(O)cc(O)c4-c4cc3ccc4O)[C@H](O[C@@H]3C[C@@](C)(N)[C@H](O)[C@@H](C)O3)c3ccc(cc3)Oc3cc2cc(c3O[C@H]2O[C@@H](CO)[C@H](O)[C@@H](O)[C@@H]2O[C@H]2C[C@](C)(N)[C@@H](O)[C@H](C)O2)Oc2ccc(cc2Cl)[C@H]1O [A82846A]
MIC (Clostridium difficile): 0.125 to 1 µg/mL
MIC (Clostridium perfringens): ≤ 0.25 µg/mL
MIC (Peptococcus constellatus): 0.25 µg/mL (≈ 0.16 µM)
MIC (Propionibacterium acnes): ≤ 0.25 µg/mL
MIC (Bacteroides fragilis): > 128 µg/mL
MIC (Bacteroides corrodens): > 128 µg/mL
% Cured [1]: 100%
% With 4 Log Drop [1]: 100%
effect in experimental catheter-induced endocarditis infection, compared with vancomycin [1]: as effective as vancomycin

CN[C@H](CC(C)C)C(=O)N[C@H]1C(=O)N[C@@H](CC(N)=O)C(=O)N[C@H]2C(=O)N[C@H]3C(=O)N[C@H](C(=O)N[C@H](C(=O)O)c4cc(O)cc(O)c4-c4cc3ccc4O)[C@H](O[C@H]3C[C@](C)(N)[C@@H](O)[C@H](C)O3)c3ccc(c(Cl)c3)Oc3cc2cc(c3O[C@@H]2O[C@H](CO)[C@@H](O)[C@H](O)[C@H]2O[C@H]2C[C@](C)(N)[C@@H](O)[C@H](C)O2)Oc2ccc(cc2Cl)[C@H]1O [A82846B]
MIC (Clostridium difficile): ≤0.06 to 0.125 µg/mL
MIC (Clostridium perfringens): 0.5 µg/mL (≈ 0.314 µM)
MIC (Peptococcus constellatus): 0.25 µg/mL (≈ 0.157 µM)
MIC (Propionibacterium acnes): ≤ 0.25 µg/mL
MIC (Bacteroides fragilis): > 128 µg/mL
MIC (Bacteroides corrodens): > 128 µg/mL
% Cured [1]: 100%
% With 4 Log Drop [1]: 100%
effect in experimental catheter-induced endocarditis infection, compared with vancomycin [1]: as effective as vancomycin
